Test results as given in ChEMBL document CHEMBL6092167, “Phosphorylation as an Effective Tool to Improve Stability and Reduce Toxicity of Antimicrobial Peptides” (J Med Chem, 2024).
≈ marks a conversion by molar mass, not a printed value. Non-standard residues stand in square brackets, D forms with d. Residues, ends and D or L forms follow the SMILES beside them. Bip = N[C@@H](Cc1ccc(-c2ccccc2)cc1)C(=O)O; pY = N[C@@H](Cc1ccc(OP(=O)(O)O)cc1)C(=O)O; pT = C[C@@H](OP(=O)(O)O)[C@H](N)C(=O)O; 2Nal = N[C@@H](Cc1ccc2ccccc2c1)C(=O)O

Key:
Staphylococcus aureus [1] = assay: Antibacterial activity against methicillin resistant Staphylococcus aureus 48 incubated for 18 to 24 hrs by broth microdilution method; format: functional; settings: time 18-24 hrs
Staphylococcus aureus [2] = assay: Antibacterial activity against Staphylococcus aureus 794 incubated for 18 to 24 hrs by broth microdilution method; format: functional; settings: time 18-24 hrs
Pseudomonas aeruginosa [3] = assay: Antibacterial activity against Pseudomonas aeruginosa ATCC 27853 incubated for 18 to 24 hrs by broth microdilution method; format: functional; settings: time 18-24 hrs
[4] = Hemolytic activity in mouse erythrocyte incubated for 1 hr by microplate reader assay; format: toxicity, cell-based
Escherichia coli [5] = assay: Antibacterial activity against Escherichia coli 780 incubated for 18 to 24 hrs by broth microdilution method; format: functional; settings: time 18-24 hrs
[6] = Cytotoxicity against HEK293T cells incubated for 1 hr by fluorescence based microplate reader assay; format: toxicity, cell-based, HEK-293T; settings: human
Escherichia coli [7] = assay: Antibacterial activity against Escherichia coli ATCC 25922 incubated for 18 to 24 hrs by broth microdilution method; format: functional; settings: time 18-24 hrs
Staphylococcus aureus [8] = assay: Antibacterial activity against Staphylococcus aureus ATCC 25923 incubated for 18 to 24 hrs by broth microdilution method; format: functional; settings: time 18-24 hrs
Bacillus subtilis = assay: Antibacterial activity against Bacillus subtilis ATCC 23857 incubated for 18 to 24 hrs by broth microdilution method; format: functional; settings: time 18-24 hrs
Pseudomonas aeruginosa [9] = assay: Antibacterial activity against Pseudomonas aeruginosa 119 incubated for 18 to 24 hrs by broth microdilution method; format: functional; settings: time 18-24 hrs
Klebsiella pneumoniae = assay: Antibacterial activity against Klebsiella pneumoniae ATCC 700603 incubated for 18 to 24 hrs by broth microdilution method; format: functional; settings: time 18-24 hrs
Escherichia coli [10] = assay: Antibacterial activity against Escherichia coli 850 incubated for 18 to 24 hrs by broth microdilution method; format: functional; settings: time 18-24 hrs
Acinetobacter baumannii = assay: Antibacterial activity against Acinetobacter baumannii ATCC 19606 incubated for 18 to 24 hrs by broth microdilution method; format: functional; settings: time 18-24 hrs
Staphylococcus aureus [11] = assay: Antibacterial activity against methicillin resistant Staphylococcus aureus ATCC 33591 incubated for 18 to 24 hrs by broth microdilution method; format: functional; settings: time 18-24 hrs

Structure (SMILES) | MIC (Staphylococcus aureus [1]) [µM] | MIC (Staphylococcus aureus [2]) [µM] | MIC (Pseudomonas aeruginosa [3]) [µM] | MHC [4] [µM] | MIC (Escherichia coli [5]) [µM] | CC50 at 1 h [6] [µM] | MIC (Escherichia coli [7]) [µM] | MIC (Staphylococcus aureus [8]) [µM] | MIC (Bacillus subtilis) [µM] | MIC (Pseudomonas aeruginosa [9]) [µM] | MIC (Klebsiella pneumoniae) [µM] | MIC (Escherichia coli [10]) [µM] | MIC (Acinetobacter baumannii) [µM] | MIC (Staphylococcus aureus [11]) [µM]
CC(C)C[C@H](NC(=O)[C@H](CC(C)C)NC(=O)[C@H](Cc1ccc(OP(=O)(O)O)cc1)NC(=O)[C@H](CCCCN)NC(=O)[C@H](Cc1c[nH]c2ccccc12)NC(=O)[C@H](CCCNC(=N)N)NC(=O)[C@H](CCCCN)NC(=O)[C@H](CC(C)C)NC(=O)[C@H](CC(C)C)NC(=O)CN)C(N)=O (H-GLLKRWK[pY]LL-NH2) | > 128 | 32 (≈ 43.8 µg/mL) | 128 (≈ 175 µg/mL) | > 256 | 64 (≈ 87.6 µg/mL) | > 128 | 64 (≈ 87.6 µg/mL) | > 128 | 64 (≈ 87.6 µg/mL) | 128 (≈ 175 µg/mL) | 128 (≈ 175 µg/mL) | 64 (≈ 87.6 µg/mL) | 64 (≈ 87.6 µg/mL) | > 128
CC(C)C[C@H](NC(=O)[C@H](CC(C)C)NC(=O)[C@@H](NC(=O)[C@H](CCCCN)NC(=O)[C@H](Cc1ccc2ccccc2c1)NC(=O)[C@H](CCCNC(=N)N)NC(=O)[C@H](CCCCN)NC(=O)[C@H](CC(C)C)NC(=O)[C@H](CC(C)C)NC(=O)CN)[C@@H](C)O)C(N)=O (H-GLLKR[2Nal]KTLL-NH2) | 16 (≈ 19.8 µg/mL) | 8 (≈ 9.9 µg/mL) | 4 (≈ 4.95 µg/mL) | > 256 | 8 (≈ 9.9 µg/mL) | 177 | 16 (≈ 19.8 µg/mL) | 16 (≈ 19.8 µg/mL) | 4 (≈ 4.95 µg/mL) | 16 (≈ 19.8 µg/mL) | 16 (≈ 19.8 µg/mL) | 16 (≈ 19.8 µg/mL) | 32 (≈ 39.6 µg/mL) | 16 (≈ 19.8 µg/mL)
CC(C)C[C@H](NC(=O)[C@H](CC(C)C)NC(=O)[C@@H](NC(=O)[C@H](CCCCN)NC(=O)[C@H](Cc1ccc2ccccc2c1)NC(=O)[C@H](CCCNC(=N)N)NC(=O)[C@H](CCCCN)NC(=O)[C@H](CC(C)C)NC(=O)[C@H](CC(C)C)NC(=O)CN)[C@@H](C)OP(=O)(O)O)C(N)=O (H-GLLKR[2Nal]K[pT]LL-NH2) | > 128 | 128 (≈ 169 µg/mL) | 128 (≈ 169 µg/mL) | > 256 | > 128 | > 128 | > 128 | > 128 | 128 (≈ 169 µg/mL) | 128 (≈ 169 µg/mL) | > 128 | 128 (≈ 169 µg/mL) | 128 (≈ 169 µg/mL) | > 128
CC(C)C[C@H](NC(=O)[C@H](CC(C)C)NC(=O)[C@@H](NC(=O)[C@H](CCCCN)NC(=O)[C@H](Cc1ccc(-c2ccccc2)cc1)NC(=O)[C@H](CCCNC(=N)N)NC(=O)[C@H](CCCCN)NC(=O)[C@H](CC(C)C)NC(=O)[C@H](CC(C)C)NC(=O)CN)[C@@H](C)O)C(N)=O (H-GLLKR[Bip]KTLL-NH2) | 8 (≈ 10.1 µg/mL) | 8 (≈ 10.1 µg/mL) | 4 (≈ 5.05 µg/mL) | 145.56 | 8 (≈ 10.1 µg/mL) | 127 | 8 (≈ 10.1 µg/mL) | 16 (≈ 20.2 µg/mL) | 4 (≈ 5.05 µg/mL) | 16 (≈ 20.2 µg/mL) | 8 (≈ 10.1 µg/mL) | 8 (≈ 10.1 µg/mL) | 16 (≈ 20.2 µg/mL) | 8 (≈ 10.1 µg/mL)
CC(C)C[C@H](NC(=O)[C@H](CC(C)C)NC(=O)[C@H](Cc1ccc(O)cc1)NC(=O)[C@H](CCCCN)NC(=O)[C@H](Cc1ccc(-c2ccccc2)cc1)NC(=O)[C@H](CCCNC(=N)N)NC(=O)[C@H](CCCCN)NC(=O)[C@H](CC(C)C)NC(=O)[C@H](CC(C)C)NC(=O)CN)C(N)=O (H-GLLKR[Bip]KYLL-NH2) | 8 (≈ 10.6 µg/mL) | 8 (≈ 10.6 µg/mL) | 8 (≈ 10.6 µg/mL) | 99.53 | 8 (≈ 10.6 µg/mL) | 82.3 | 8 (≈ 10.6 µg/mL) | 8 (≈ 10.6 µg/mL) | 4 (≈ 5.3 µg/mL) | 8 (≈ 10.6 µg/mL) | 8 (≈ 10.6 µg/mL) | 8 (≈ 10.6 µg/mL) | 16 (≈ 21.2 µg/mL) | 8 (≈ 10.6 µg/mL)
CC(C)C[C@H](NC(=O)[C@H](CC(C)C)NC(=O)[C@@H](NC(=O)[C@H](CCCCN)NC(=O)[C@H](Cc1ccc(-c2ccccc2)cc1)NC(=O)[C@H](CCCNC(=N)N)NC(=O)[C@H](CCCCN)NC(=O)[C@H](CC(C)C)NC(=O)[C@H](CC(C)C)NC(=O)CN)[C@@H](C)OP(=O)(O)O)C(N)=O (H-GLLKR[Bip]K[pT]LL-NH2) | 128 (≈ 172 µg/mL) | 32 (≈ 43 µg/mL) | 64 (≈ 86 µg/mL) | > 256 | 32 (≈ 43 µg/mL) | 131 | 64 (≈ 86 µg/mL) | 128 (≈ 172 µg/mL) | 32 (≈ 43 µg/mL) | 128 (≈ 172 µg/mL) | 128 (≈ 172 µg/mL) | 64 (≈ 86 µg/mL) | 64 (≈ 86 µg/mL) | 128 (≈ 172 µg/mL)
CC(C)C[C@H](NC(=O)[C@H](CC(C)C)NC(=O)[C@H](Cc1ccc(OP(=O)(O)O)cc1)NC(=O)[C@H](CCCCN)NC(=O)[C@H](Cc1ccc(-c2ccccc2)cc1)NC(=O)[C@H](CCCNC(=N)N)NC(=O)[C@H](CCCCN)NC(=O)[C@H](CC(C)C)NC(=O)[C@H](CC(C)C)NC(=O)CN)C(N)=O (H-GLLKR[Bip]K[pY]LL-NH2) | 8 (≈ 11.2 µg/mL) | 8 (≈ 11.2 µg/mL) | 32 (≈ 45 µg/mL) | 131.69 | 16 (≈ 22.5 µg/mL) | 110 | 8 (≈ 11.2 µg/mL) | 16 (≈ 22.5 µg/mL) | 8 (≈ 11.2 µg/mL) | 32 (≈ 45 µg/mL) | 16 (≈ 22.5 µg/mL) | 16 (≈ 22.5 µg/mL) | 8 (≈ 11.2 µg/mL) | 8 (≈ 11.2 µg/mL)
CC(C)C[C@H](NC(=O)[C@H](CC(C)C)NC(=O)[C@H](Cc1ccc(OP(=O)(O)O)cc1)NC(=O)[C@H](CCCCN)NC(=O)[C@H](CC(C)C)NC(=O)[C@H](CCCNC(=N)N)NC(=O)[C@H](CCCCN)NC(=O)[C@H](Cc1c[nH]c2ccccc12)NC(=O)[C@H](CC(C)C)NC(=O)CN)C(N)=O (H-GLWKRLK[pY]LL-NH2) | 16 (≈ 21.9 µg/mL) | 8 (≈ 10.9 µg/mL) | 32 (≈ 43.8 µg/mL) | 268.04 | 8 (≈ 10.9 µg/mL) | 148 | 8 (≈ 10.9 µg/mL) | 16 (≈ 21.9 µg/mL) | 8 (≈ 10.9 µg/mL) | 64 (≈ 87.6 µg/mL) | 16 (≈ 21.9 µg/mL) | 16 (≈ 21.9 µg/mL) | 8 (≈ 10.9 µg/mL) | 16 (≈ 21.9 µg/mL)
CC(C)C[C@H](NC(=O)[C@H](CC(C)C)NC(=O)[C@@H](NC(=O)[C@H](CCCCN)NC(=O)[C@H](CC(C)C)NC(=O)[C@H](CCCNC(=N)N)NC(=O)[C@H](CCCCN)NC(=O)[C@H](Cc1ccc2ccccc2c1)NC(=O)[C@H](CC(C)C)NC(=O)CN)[C@@H](C)O)C(N)=O (H-GL[2Nal]KRLKTLL-NH2) | 8 (≈ 9.9 µg/mL) | 8 (≈ 9.9 µg/mL) | 8 (≈ 9.9 µg/mL) | 154.3 | 8 (≈ 9.9 µg/mL) | 111 | 8 (≈ 9.9 µg/mL) | 8 (≈ 9.9 µg/mL) | 8 (≈ 9.9 µg/mL) | 8 (≈ 9.9 µg/mL) | 8 (≈ 9.9 µg/mL) | 8 (≈ 9.9 µg/mL) | 8 (≈ 9.9 µg/mL) | 8 (≈ 9.9 µg/mL)
O=C(O)c1cn(C2CC2)c2cc(N3CCNCC3)c(F)cc2c1=O [CIPROFLOXACIN] |  |  | 4 (≈ 1.33 µg/mL) |  |  |  | < 1 | 16 (≈ 5.3 µg/mL) | 2 (≈ 0.663 µg/mL) |  |  |  | 16 (≈ 5.3 µg/mL) | 
C[C@@H](O)[C@H]1C(=O)N2C(C(=O)O)=C(S[C@@H]3CN[C@H](C(=O)N(C)C)C3)[C@H](C)[C@H]12 [MEROPENEM] | 128 (≈ 49.1 µg/mL) | < 1 | 1 (≈ 0.383 µg/mL) |  | < 1 |  | < 1 | < 1 | < 1 | 8 (≈ 3.07 µg/mL) | 2 (≈ 0.767 µg/mL) | < 1 | 2 (≈ 0.767 µg/mL) | 64 (≈ 24.5 µg/mL)
COc1cccc(OC)c1C(=O)N[C@@H]1C(=O)N2[C@@H]1SC(C)(C)[C@@H]2C(=O)O [METHICILLIN] | > 128 | > 128 | > 128 |  | > 128 |  | > 128 | 8 (≈ 3.04 µg/mL) | < 1 | > 128 | > 128 | > 128 | > 128 | > 128
